# Measurements published in patent publication US7498336B2, “Deazaflavin compounds and methods of use thereof” (The United States of America as represented by the …, priority 2003, dated 2009).
# Entries after “also recorded” stand apart in the source; their conditions may differ.
# Tests used:
# Nedd4 = target: T1, Nedd4 (Homo sapiens, UniProt P46934); experiment: In vitro ubiquitination assay (E1+E2+E3) with unrelated E3 ligase; assay type: biochemical; conditions: gel assay, FIG. 2B, 2C
# T1 construct: made in house
# T1 sequence (P46934 1-1319): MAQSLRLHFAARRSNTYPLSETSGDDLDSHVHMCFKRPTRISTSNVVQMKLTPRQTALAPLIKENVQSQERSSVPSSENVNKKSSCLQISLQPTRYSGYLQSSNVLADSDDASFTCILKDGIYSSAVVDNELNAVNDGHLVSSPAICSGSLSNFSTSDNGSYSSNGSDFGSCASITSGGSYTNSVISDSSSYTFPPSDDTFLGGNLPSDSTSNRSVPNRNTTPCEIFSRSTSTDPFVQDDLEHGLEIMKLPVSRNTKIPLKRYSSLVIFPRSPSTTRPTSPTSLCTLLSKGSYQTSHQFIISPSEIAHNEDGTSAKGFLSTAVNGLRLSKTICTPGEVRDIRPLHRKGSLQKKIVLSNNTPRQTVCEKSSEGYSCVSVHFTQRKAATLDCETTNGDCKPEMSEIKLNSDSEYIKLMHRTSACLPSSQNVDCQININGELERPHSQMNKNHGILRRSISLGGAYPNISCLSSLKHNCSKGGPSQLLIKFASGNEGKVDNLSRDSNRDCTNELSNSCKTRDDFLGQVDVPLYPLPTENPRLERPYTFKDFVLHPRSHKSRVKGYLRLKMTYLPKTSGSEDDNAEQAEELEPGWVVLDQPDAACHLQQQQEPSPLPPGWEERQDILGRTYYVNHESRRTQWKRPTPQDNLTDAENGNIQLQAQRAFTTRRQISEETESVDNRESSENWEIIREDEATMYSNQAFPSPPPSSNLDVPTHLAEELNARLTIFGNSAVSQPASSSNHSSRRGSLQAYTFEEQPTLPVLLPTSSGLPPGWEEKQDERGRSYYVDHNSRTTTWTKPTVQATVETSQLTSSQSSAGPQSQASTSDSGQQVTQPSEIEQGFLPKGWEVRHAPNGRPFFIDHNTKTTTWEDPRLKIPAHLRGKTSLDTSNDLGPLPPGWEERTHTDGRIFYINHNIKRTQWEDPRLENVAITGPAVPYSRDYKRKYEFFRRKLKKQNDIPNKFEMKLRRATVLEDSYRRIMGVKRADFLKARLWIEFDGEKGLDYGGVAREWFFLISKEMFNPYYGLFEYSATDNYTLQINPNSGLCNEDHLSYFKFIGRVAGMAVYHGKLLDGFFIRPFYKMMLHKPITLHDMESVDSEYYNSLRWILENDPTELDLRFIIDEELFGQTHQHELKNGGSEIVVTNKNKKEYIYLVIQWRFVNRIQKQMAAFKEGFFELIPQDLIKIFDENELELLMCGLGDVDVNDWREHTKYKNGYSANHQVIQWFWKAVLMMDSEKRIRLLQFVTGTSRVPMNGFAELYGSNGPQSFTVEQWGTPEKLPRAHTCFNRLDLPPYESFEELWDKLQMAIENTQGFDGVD
# Method: 1 pmole per experimental point of bacterially expressed GST-MDM2 (or GST-Nedd) was coupled to glutathione Sepharose (GS) for 30 minutes at room temperature with tumbling, followed by 3× wash with 50 mM Tris pH 7.5. Following this, 20 μl of 1× buffer was added (40 μl 10× reaction buffer*, 40 μl 10× PCK**, 320 μl dH2O). The test compound in DMSO is then added to the desired concentration with an equal volume of DMSO used as a control. Samples are incubated with shaking for 1 hr at 23° C. To carry out the reaction, a pre-made cocktail of Rabbit E1 (Calbiochem #6620700)/UbcH5B/^32P Ub cocktail (1 μl/0.5 μl/1 μl) is added followed by 15 minutes shaking at 30° C. The reaction is terminated by addition of 8 μl 4× reducing SDS-PAGE loading buffer. After dissociating proteins from the beads at 100° C. for 2 minutes, samples are resolved on 6% PAGE followed by exposure of the dried gel to phosphor screen. Note: ^32P Ub is derived from GST-Ub that has been engineered to include a PKA phosphorylation site. This fusion protein is purified on glutathione Sepharose, phosphorylated, following this, the ^32P Ub ubiquitin is cleaved and purified away from the thrombin.
# rabbit E1 = target: T2, rabbit E1 (Oryctolagus cuniculus, UniProt Q29504); experiment: E1 only assay (thiol-ester linkage of ubiquitin with E1); assay type: biochemical; conditions: FIG. 2D
# T2 construct: purchased Calbiochem 6620700
# T2 sequence (Q29504 1-1058): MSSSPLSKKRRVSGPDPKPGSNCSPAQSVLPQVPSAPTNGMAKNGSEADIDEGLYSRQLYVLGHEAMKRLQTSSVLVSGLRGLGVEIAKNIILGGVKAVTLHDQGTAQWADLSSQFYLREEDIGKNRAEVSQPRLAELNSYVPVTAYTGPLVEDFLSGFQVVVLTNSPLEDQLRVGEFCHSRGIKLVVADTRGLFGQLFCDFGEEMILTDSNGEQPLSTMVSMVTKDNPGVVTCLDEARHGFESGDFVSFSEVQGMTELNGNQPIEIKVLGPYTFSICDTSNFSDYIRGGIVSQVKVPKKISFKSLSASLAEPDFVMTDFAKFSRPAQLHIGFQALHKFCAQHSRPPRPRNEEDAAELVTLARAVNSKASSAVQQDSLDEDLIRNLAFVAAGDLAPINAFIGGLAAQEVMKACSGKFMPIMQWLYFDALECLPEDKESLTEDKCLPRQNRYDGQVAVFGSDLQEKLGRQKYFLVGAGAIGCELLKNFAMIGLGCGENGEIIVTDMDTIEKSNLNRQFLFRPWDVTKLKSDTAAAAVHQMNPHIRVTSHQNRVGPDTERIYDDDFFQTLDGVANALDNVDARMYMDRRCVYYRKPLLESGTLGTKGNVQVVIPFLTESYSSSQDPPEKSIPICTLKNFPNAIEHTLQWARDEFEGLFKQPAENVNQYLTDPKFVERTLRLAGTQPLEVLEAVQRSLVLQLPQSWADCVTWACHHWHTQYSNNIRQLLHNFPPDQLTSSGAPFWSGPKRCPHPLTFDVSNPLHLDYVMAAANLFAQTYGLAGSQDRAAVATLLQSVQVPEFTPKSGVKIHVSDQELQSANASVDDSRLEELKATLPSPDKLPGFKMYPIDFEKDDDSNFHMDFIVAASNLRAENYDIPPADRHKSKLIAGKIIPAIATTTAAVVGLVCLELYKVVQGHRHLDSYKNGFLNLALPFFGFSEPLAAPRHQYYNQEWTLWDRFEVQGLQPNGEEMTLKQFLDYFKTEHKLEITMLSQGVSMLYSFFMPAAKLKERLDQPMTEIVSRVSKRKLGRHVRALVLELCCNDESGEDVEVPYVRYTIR
# Method: 2 μl rabbit E1 +12 μl of 1× reaction buffer are mixed together with the test compound followed by addition of 1 μl of ^32P Ub is added for 10 minutes at room temperature followed by resolution by SDS-PAGE under non-reducing conditions to maintain thiol-ester linkages and exposure as above.
smiles,measurement,setting,value
"O=c1nc2n(-c3cccc(Cl)c3)c3ccc([N+](=O)[O-])cc3cc-2c(=O)[nH]1 [Compound 98C07, 10-(-3-chloro-phenyl)-7-nitro-10H-pyrimido[4,5-b]quinoline-2,4-dione]",selectivity of inhibition of MDM2 versus unrelated E3 ligase Nedd4,Nedd4,shows some selectivity as an inhibitor of MDM2; also recorded: specificity of MDM2
same,inhibition of thiol-ester linkage of ubiquitin with E1,rabbit E1,inhibits neither thiol-ester linkages of ubiquitin with E1 nor E2
